{"source": "ChEMBL document CHEMBL4613261", "about": "“Metabolic and Pharmaceutical Aspects of Fluorinated Compounds” (J Med Chem, 2020)", "key": {"[1]": {"biological_target": "Alanine racemase, biosynthetic (Escherichia coli K-12, UniProt P0A6B4)", "sequence (P0A6B4 whole entry)": "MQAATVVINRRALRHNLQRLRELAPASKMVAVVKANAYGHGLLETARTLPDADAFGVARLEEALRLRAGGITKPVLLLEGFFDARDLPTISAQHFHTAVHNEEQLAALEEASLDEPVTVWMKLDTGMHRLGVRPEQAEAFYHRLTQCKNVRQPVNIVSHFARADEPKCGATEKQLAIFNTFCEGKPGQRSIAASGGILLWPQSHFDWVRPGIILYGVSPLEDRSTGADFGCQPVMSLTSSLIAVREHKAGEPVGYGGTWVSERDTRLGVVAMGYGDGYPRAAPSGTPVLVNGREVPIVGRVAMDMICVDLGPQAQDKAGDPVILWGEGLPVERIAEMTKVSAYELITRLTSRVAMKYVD", "test": "Substrate activity at Escherichia coli B alanine racemase assessed as partition ratio by measuring ratio of turnover rate to inactivation rate"}, "[2]": {"test": "Toxicity in Wistar rat measured for 6 days", "settings": "in vivo, 144 h"}, "[3]": {"test": "Half life in rat", "assay_type": "ADME", "settings": "in vivo"}, "[4]": {"test": "Half life in dog", "assay_type": "ADME, Canis lupus familiaris", "settings": "in vivo"}, "[5]": {"test": "Half life in human hepatocytes", "assay_type": "ADME, cell-based, Hepatocyte"}, "[6]": {"biological_target": "T1, MGST1 (microsomal glutathione S-transferase 1) (Rattus norvegicus, UniProt P08011)", "T1 sequence (P08011 whole entry)": "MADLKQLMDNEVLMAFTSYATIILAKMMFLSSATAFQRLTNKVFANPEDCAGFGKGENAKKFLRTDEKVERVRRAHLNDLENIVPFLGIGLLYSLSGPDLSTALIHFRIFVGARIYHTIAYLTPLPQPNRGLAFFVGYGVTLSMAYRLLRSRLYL", "test": "Substrate activity at MGST1 in rat liver microsomes assessed as substrate depletion at 50 uM incubated for 30 mins in presence of GSH by liquid chromatography/mass spectrometry", "assay_type": "ADME", "settings": "read-out: Activity"}, "Adenosylhomocysteinase": {"biological_target": "T2, Adenosylhomocysteinase (Rattus norvegicus, UniProt P10760)", "T2 sequence (P10760 whole entry)": "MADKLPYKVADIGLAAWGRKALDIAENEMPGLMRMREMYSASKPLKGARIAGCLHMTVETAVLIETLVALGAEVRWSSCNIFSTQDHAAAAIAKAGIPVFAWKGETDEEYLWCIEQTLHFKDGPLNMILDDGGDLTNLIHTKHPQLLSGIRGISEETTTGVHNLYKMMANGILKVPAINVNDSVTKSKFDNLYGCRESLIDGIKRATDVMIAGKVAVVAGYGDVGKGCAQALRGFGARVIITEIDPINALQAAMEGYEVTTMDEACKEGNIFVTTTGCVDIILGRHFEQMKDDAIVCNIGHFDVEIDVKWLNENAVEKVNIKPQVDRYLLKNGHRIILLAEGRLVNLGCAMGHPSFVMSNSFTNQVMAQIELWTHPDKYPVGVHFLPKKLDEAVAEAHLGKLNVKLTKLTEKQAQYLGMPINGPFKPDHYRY", "test": "Reversible inhibition of rat liver S- adenosyl-L-homocysteine hydrolase using SAH as substrate by spectrophotometric method"}, "[7]": {"test": "Substrate activity at GSTZ (unknown origin) assessed as rate of drug conversion to S-(carboxymethyl)-glutathione per mg of protein", "assay_type": "ADME", "settings": "human"}, "[8]": {"test": "Acute toxicity in rat measured after 4 hrs", "settings": "in vivo"}, "[9]": {"test": "Lipophilicity, log P of the compound", "settings": "octanol/water"}, "[10]": {"test": "Aqueous solubility of the compound in pH 6.8 buffer", "settings": "pH 6.8 buffer"}, "[11]": {"test": "Intrinsic clearance in human liver microsome", "assay_type": "ADME", "settings": "liver microsomes, read-out: CLH"}, "[12]": {"test": "Protein binding in human plasma"}, "Cytochrome P450 2C8": {"biological_target": "T3, Cytochrome P450 2C8 (Homo sapiens, UniProt P10632)", "T3 sequence (P10632 whole entry)": "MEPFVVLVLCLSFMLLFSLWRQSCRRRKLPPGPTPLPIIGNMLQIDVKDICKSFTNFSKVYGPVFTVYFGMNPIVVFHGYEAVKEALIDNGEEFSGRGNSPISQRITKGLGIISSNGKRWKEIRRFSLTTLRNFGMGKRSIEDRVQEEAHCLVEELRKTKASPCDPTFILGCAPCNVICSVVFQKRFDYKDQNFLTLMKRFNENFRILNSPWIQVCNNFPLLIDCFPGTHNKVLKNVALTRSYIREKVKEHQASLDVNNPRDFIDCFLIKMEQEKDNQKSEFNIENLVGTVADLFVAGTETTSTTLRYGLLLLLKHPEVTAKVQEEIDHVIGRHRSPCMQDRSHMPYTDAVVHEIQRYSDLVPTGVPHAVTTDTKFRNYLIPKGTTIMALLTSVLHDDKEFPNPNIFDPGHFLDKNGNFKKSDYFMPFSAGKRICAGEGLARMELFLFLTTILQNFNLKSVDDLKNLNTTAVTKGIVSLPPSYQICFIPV", "test": "Inhibition of CYP2C8 (unknown origin) assessed as reduction in amodiaquine N-deethylation", "assay_type": "ADME"}, "Cytochrome P450 2C9": {"biological_target": "Cytochrome P450 2C9 (Homo sapiens, UniProt P11712)", "sequence (P11712 whole entry)": "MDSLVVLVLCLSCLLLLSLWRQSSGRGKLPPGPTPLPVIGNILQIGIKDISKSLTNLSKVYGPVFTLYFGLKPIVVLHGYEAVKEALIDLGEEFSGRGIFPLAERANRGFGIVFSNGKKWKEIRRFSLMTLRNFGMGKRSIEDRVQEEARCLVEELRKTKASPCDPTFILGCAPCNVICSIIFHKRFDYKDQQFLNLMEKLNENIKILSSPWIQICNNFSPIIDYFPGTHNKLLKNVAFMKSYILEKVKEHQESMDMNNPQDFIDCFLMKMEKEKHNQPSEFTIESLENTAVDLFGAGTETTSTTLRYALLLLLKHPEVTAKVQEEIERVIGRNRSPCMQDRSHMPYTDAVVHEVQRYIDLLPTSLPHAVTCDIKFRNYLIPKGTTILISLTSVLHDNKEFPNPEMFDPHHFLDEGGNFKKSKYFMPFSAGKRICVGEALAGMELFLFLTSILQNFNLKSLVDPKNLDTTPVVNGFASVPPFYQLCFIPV", "test": "Inhibition of CYP2C9 (unknown origin) assessed as reduction in diclofenac 4-hydroxylation", "assay_type": "ADME"}, "[13]": {"test": "Lipophilicity, log P of the compound by C18 reverse phase HPLC", "assay_type": "physicochemical"}, "[14]": {"test": "Drug recovery in rat excreta assessed as metabolically unchanged parent compound at 100 mg/kg, po", "assay_type": "ADME, organism-based", "settings": "read-out: Drug recovery"}}, "note": "Where “and” joins values, the source holds several entries; their conditions need not be identical. Equal values may be shown once.", "data": [{"smiles": "N[C@@H](C(=O)O)C(F)F", "values": [{"measurement": "Ratio", "setting": "[1]", "value": 2600}]}, {"smiles": "OCC(F)(F)F", "note": "[TRIFLUOROETHANOL]", "values": [{"measurement": "LD50", "setting": "[2]", "value": "440 mg/kg and 210 mg/kg"}]}, {"smiles": "N[C@H]1C[C@@H](C(=O)O)CC1=C(F)F", "note": "[CPP-115 FREE BASE]", "values": [{"measurement": "half-life", "setting": "[3]", "value": "1 to 2.3", "unit": "h"}, {"measurement": "half-life", "setting": "[4]", "value": "1 to 2.3", "unit": "h"}, {"measurement": "half-life", "setting": "[5]", "value": 20, "unit": "h"}]}, {"smiles": "FC(F)(F)c1cccnc1Cl", "values": [{"measurement": "metabolised at 0.5 h, 50 µM", "setting": "[6]", "value": 31, "unit": "%"}]}, {"smiles": "Nc1ncnc2c1ncn2[C@@H]1C=C(CO)[C@@H](O)[C@H]1O", "note": "[NEOPLANOCIN A]", "values": [{"measurement": "Ki", "setting": "Adenosylhomocysteinase", "value": 0.00839, "unit": "µM"}]}, {"smiles": "N[C@H](C(=O)O)C(F)F", "values": [{"measurement": "Ratio", "setting": "[1]", "value": 5000}]}, {"smiles": "CC(Cl)C(=O)O", "note": "(racemic)", "values": [{"measurement": "K", "setting": "[7]", "value": 1655, "unit": "nmol/min"}]}, {"smiles": "CC(I)C(=O)O", "note": "(racemic)", "values": [{"measurement": "K", "setting": "[7]", "value": 2532, "unit": "nmol/min"}]}, {"smiles": "CC(Br)C(=O)O", "note": "(racemic)", "values": [{"measurement": "K", "setting": "[7]", "value": 2142, "unit": "nmol/min"}]}, {"smiles": "FC(F)=C(F)F", "note": "[TETRAFLUOROETHYLENE]", "values": [{"measurement": "Activity", "setting": "[8]", "value": 40000, "unit": "ppm"}]}, {"smiles": "O=[N+]([O-])c1cn2c(n1)OC[C@@H](OCc1ccc(SC(F)(F)F)cc1)C2", "values": [{"measurement": "logP", "setting": "[9]", "value": 2.7}, {"measurement": "solubility", "setting": "[10]", "value": 5, "unit": "µM"}, {"measurement": "microsomal CLint", "setting": "[11]", "value": "< 25", "unit": "µL/min/mg"}, {"measurement": "fraction unbound", "setting": "[12]", "value": 0.4}]}, {"smiles": "Oc1cccnc1Cl", "values": [{"measurement": "metabolised at 0.5 h, 50 µM", "setting": "[6]", "value": "< 5", "unit": "%"}]}, {"smiles": "Cc1ccc(NC(=O)C2(c3ccc4c(c3)OC(F)(F)O4)CC2)nc1-c1cccc(C(=O)O)c1", "note": "[LUMACAFTOR]", "values": [{"measurement": "IC50", "setting": "Cytochrome P450 2C8", "value": 12, "unit": "µM"}, {"measurement": "IC50", "setting": "Cytochrome P450 2C9", "value": 32, "unit": "µM"}]}, {"smiles": "Clc1cccnc1Cl", "values": [{"measurement": "metabolised at 0.5 h, 50 µM", "setting": "[6]", "value": 26, "unit": "%"}]}, {"smiles": "FC(F)(F)Oc1ccccc1", "values": [{"measurement": "logP", "setting": "[13]", "value": 3.35}]}, {"smiles": "N[C@H](CF)C(=O)O", "note": "[FLUDALANINE]", "values": [{"measurement": "Ratio", "setting": "[1]", "value": 810}]}, {"smiles": "N#Cc1c[nH]cc1-c1cccc2c1OC(F)(F)O2", "note": "[FLUDIOXONIL]", "values": [{"measurement": "dose excreted", "setting": "[14]", "value": 12, "unit": "%"}]}, {"smiles": "COc1cccnc1Cl", "values": [{"measurement": "metabolised at 0.5 h, 50 µM", "setting": "[6]", "value": 17, "unit": "%"}]}, {"smiles": "Nc1cccnc1Cl", "values": [{"measurement": "metabolised at 0.5 h, 50 µM", "setting": "[6]", "value": "< 5", "unit": "%"}]}, {"smiles": "CC(F)(F)Oc1ccccc1", "values": [{"measurement": "logP", "setting": "[13]", "value": 2.87}]}, {"smiles": "NC(C(=O)O)C(F)(F)F", "note": "(racemic)", "values": [{"measurement": "Ratio", "setting": "[1]", "value": 10}]}, {"smiles": "Nc1nc2ccc(OC(F)(F)F)cc2s1", "note": "[RILUZOLE]", "values": [{"measurement": "microsomal CLint", "setting": "[11]", "value": 38.9, "unit": "µL/min/mg"}, {"measurement": "PPB", "setting": "[12]", "value": 85, "unit": "%"}]}]}
